Patent publication US20220030866A1, “CONJUGATES OF AUXIN ANALOGS” (The State of Israel, Ministry of Agriculture & Rural …, priority 2019, published 2022)

Key:
Format in all cases: in vivo
mung bean cuttings = experiment: rooting of mung bean cuttings (number of adventitious roots per cutting); details: for rooting of mung bean cuttings (number of roots per cutting): Table 1, water control 29.6; for effect on AR formation in mung bean cuttings, in words: tested at 2, 10 or 50 μM
Protocol: Mung bean cuttings have been used for many years as a model for assessing the effect of plant hormones and synthetic chemicals on the rooting process. In the present study, this system was used to ascertain activity of conjugates in inducing adventitious root (AR) formation, and to evaluate the rate of conjugate hydrolysis that releases the free active auxin. […] The rooting activity in this system is determined by the number of adventitious roots per cutting.
The mung bean model was used to examine the activity of conjugates of three phenoxy acids, 4-CPA, MCPA, and 2-DP, on rooting. For comparison, plants were treated with (unconjugated) IBA or with 2-DP conjugated to glycine methyl ester (Gly-ME).

[1] = tested on: cuttings from mature Eucalyptus grandis trees; experiment: rooting of cuttings from mature Eucalyptus grandis trees; details: 100 μM conjugate without IBA, or 28 mM (6000 ppm) IBA alone; submerging base or spraying; scored after 45-60 days
Protocol: Eight-year-old Eucalyptus grandis plants were grown from seeds and placed in a net house in 20 liter pots containing peat and tuff (70:30, v/v), drip irrigated and fertilized with 3 liters of Shefer™ 737 liquid fertilizer (ICL Fertilizers, Israel) per cubic meter of water. Cuttings were collected from branches which grew 2-2.5 meters above the ground. Cuttings were 2-3 mm thick branches, 15 cm long, with 1-2 pairs of leaves. The leaf blades were cut in half to decrease transpiration. Cuttings were treated with 6000 ppm IBA (potassium indole-3-butyric acid) for 1 minute with or without 100 μM of each tested compound. The tested compounds were either applied to the base of the cutting, with or without IBA and/or sprayed on the foliage in the presence of 0.05% Triton™ X-100 surfactant. Cuttings were rooted in rooting tables heated to 25° C. under constant 90% humidity, in a controlled-climate greenhouse. The rooting medium contained crushed polystyrene foam: vermiculite no. 3: pit (3:2:1, v/v/v). Rooting was recorded after 30-60 days. Roots system architecture was analyzed by WinRHIZO™ system scanner and software.
Exemplary conjugates prepared as described in Example 1 were tested for their ability to promote adventitious root (AR) formation in cuttings from mature eucalyptus (Eucalyptus grandis) trees. In this model, AR formation is difficult to induce, with 5-15% root development in the presence of IBA potassium salt [Abu-Abied et al., Plant J 2012, 71:787-799], such that effective AR formation indicates a potent root formation activity.
Various concentrations and mode of applications were tested for each compound in the presence or absence of IBA (the “gold standard” rooting enhancer). A concentration of 100 μM of each conjugate was used for an initial screen of 37 conjugates, in which the compounds were applied to the base of the cutting by dipping (submerging the cutting base in a solution of the conjugate for one minute) or to the foliage by spraying. After 45 days, the cuttings were scored for the presence of callus or roots.
Conjugates prepared as described herein were evaluated in a Eucalyptus grandis rooting model, according to procedures such as described hereinabove. The bases of cuttings (a 12-15 cm long branch with the two upper leaves, whose blades were cut in half) were dipped in a solution containing 6000 ppm IBA potassium salt and 50 μM of conjugate for 1 minute, and the leaves were sprayed with 50 μM of the same conjugate (mixed with 0.5% Triton™ X-100 surfactant). The cuttings were imbedded in a heated (25° C.) rooting table containing a 1:2:3 ratio of peat:vermiculite:polystyrene, under 90% relative humidity.

[2] = tested on: cuttings from mature Eucalyptus grandis trees; experiment: as above; details: 100 μM compound by submerging or spraying, with 6000 ppm IBA
[3] = tested on: Pinus halepensis cuttings; experiment: rooting and root development in pine cuttings; details: 400 ppm IBA potassium salt + 5 ppm conjugate, 4 hours dip; 12 weeks
Protocol: The effects of exemplary D-amino acid conjugates of 4-CPA (Compounds to and Is) on rooting in Pinus halepensis cuttings were compared with those of 2-DP-glycine methyl ester conjugate (2-DP-Gly). Rooting mature pine cuttings (i.e., cuttings that are taken from trees more than 4 years old) is very difficult.
Apical cuttings were taken from 7-year-old trees, stored for 4 weeks at 4° C., and treated by dipping the cutting bases for 4 hours in the following solution: 400 ppm IBA potassium salt+5 ppm tested conjugate+0.1% Amistar™ fungicide (250 grams/liter azoxystrobin). The cuttings were evaluated after 12 weeks.

[4] = tested on: avocado rootstock cuttings; experiment: rooting of avocado rootstock cuttings; details: vc51 rootstock, IBA with compound
Text: Avocado rootstock is extremely difficult to root. Currently, the common technique for propagating clones of avocado rootstock is to graft the desired rootstock on a seedling, and transfer to the dark to generate an etiolated branch. This branch can be rooted and grafted with the desired variety while still grafted on the seed [Frolich & Platt, California Avocado Society 1971-72 Yearbook 1972, 55:97-109]. However, the preparation of such twice-grafted seedlings is time-consuming and expensive.
The ability of exemplary conjugates to promote rooting in green avocado cuttings (in the presence of IBA) was therefore examined. In particular, Compounds 2h (MCPA-methanol), 4b (NAA-β-alanine methyl ester), 3g (2-DP-methyl-4-aminobenzoate), 3f (2-DP-p-toluidine), 1l (4-CPA-morpholine) and is (4-CPA-D-Trp) were tested.
Exemplary conjugates were also tested for rooting the hard-to-root species of avocado (VC801 rootstock) and argan, according to procedures described hereinabove.

SMILES	rooting of mung bean cuttings (number of roots per cutting) (mung bean cuttings; 10 μM)	rooting of mung bean cuttings (number of roots per cutting) (mung bean cuttings; 50 μM)	rooting in combination with IBA compared with IBA alone, in words [2]	other results
O=C(COc1ccc(Cl)cc1)NCCO [Compound 1a, 4-CPA-ethanolamine]	49.5	14.9	enhanced rooting in comparison with IBA alone	percentage of cuttings which exhibited rooting, stand-alone treatment [1]: 15%
COC(=O)CCNC(=O)COc1ccc(Cl)cc1 [Compound 1b, 4-CPA-β-alanine methyl ester]	0	0	enhanced rooting in comparison with IBA alone	–
Cc1ccc(NC(=O)COc2ccc(Cl)cc2)cc1 [Compound 1f, 4-CPA-p-toluidine]	0	0	enhanced rooting in comparison with IBA alone	–
COC(=O)c1ccc(NC(=O)COc2ccc(Cl)cc2)cc1 [Compound 1g, 4-CPA-methyl-4-aminobenzoate]	0	0	enhanced rooting in comparison with IBA alone	–
COC(=O)CNC(=O)C(C)Oc1ccc(Cl)cc1Cl (centres unmarked) [Compound 2-DP-Gly, reference compound]	–	97.2	–	Degree of root development Medium (%) [3]: 6.6%; Degree of root development Weak (%) [3]: 46.7%; Degree of root development Well-developed (%) [3]: 46.7%; Rooting rate (%) [3]: 87.5%; effect on AR formation in mung bean cuttings, in words (mung bean cuttings): positively correlated to dose
Cc1ccc(NC(=O)C(C)Oc2ccc(Cl)cc2Cl)cc1 (centres unmarked) [Compound 3f, 2-DP-p-toluidine]	–	–	enhanced rooting in comparison with IBA alone	roots per cutting of green avocado branches compared with etiolated branches treated with IBA, in words [4]: considerably more roots per cutting; rooting success rate of green avocado branches, in words ([4]; compared with IBA alone): considerably enhanced the rooting success rate
COC(=O)C(C)Oc1ccc(Cl)cc1Cl (centres unmarked) [Compound 3h, 2-DP-methanol]	–	–	enhanced rooting in comparison with IBA alone	–
COC(=O)CNC(=O)COc1ccc(Cl)cc1 [Compound 4-CPA-Gly, 4-CPA-Gly-methyl ester]	–	–	exhibited lower rooting activity than the other conjugates	appearance of the base of mung bean cuttings (mung bean cuttings; FIGS. 4A, 4B): appeared swollen, but no AR developed; effect on AR formation in mung bean cuttings, in words (mung bean cuttings): induced a similar rooting rate only at the lowest tested concentration of 2 μM
